{"source": "patent US12065654B2", "about": "“Plants having increased tolerance to herbicides” (BASF SE, priority 2014, dated 2024)", "format_in_all_cases": "in vivo, Glycine max", "key": {"[1]": {"test_system": "soybean plants, transgene none (WT)", "experiment": "Greenhouse testing of soybean plants", "settings": "no transgene, 14 days after treatment", "protocol": "(§1) Transgenic plants expressing heterologous HPPD or HST enzymes are tested for tolerance against HPPD-inhibiting, preferably pyrazolone, isoxazole, or triketone derivative herbicides in greenhouse experiments.\n(§2) For post emergence treatment, the test plants are first grown to a height of 3 to 15 cm, depending on the plant habit, and only then treated with the herbicides. For this purpose, the test plants are either sown directly and grown in the same containers, or they are first grown separately and transplanted into the test containers a few days prior to treatment.\n(§3) For testing of T0 plants, cuttings can be used. In the case of soybean plants, an optimal shoot for cutting is about 7.5 to 10 cm tall, with at least two nodes present. Each cutting is taken from the original transformant (mother plant) and dipped into rooting hormone powder (indole-3-butyric acid, IBA). The cutting is then placed in oasis wedges inside a bio-dome. Wild type cuttings are also taken simultaneously to serve as controls. The cuttings are kept in the bio-dome for 5-7 days and then transplanted to pots and then acclimated in the growth chamber for two more days. Subsequently, the cuttings are transferred to the greenhouse, acclimated for approximately 4 days, and then subjected to spray tests as indicated.\nDepending on the species, the plants are kept at 10-25° C. or 20-35° C. The test period extends over 3 weeks. During this time, the plants are tended and their response to the individual treatments is evaluated. Herbicide injury evaluations are taken at 2 and 3 weeks after treatment. […] Tolerance to HPPD-inhibiting, preferably pyrazolone, isoxazole, or triketone derivative herbicides can also be assessed in Arabidopsis. In this case transgenic Arabidopsis thaliana plants are assayed for improved tolerance to HPPD-inhibiting, preferably pyrazolone, isoxazole, or triketone derivative herbicides in 48-well plates. Seeds are surface sterilized by stirring for 5 min in ethanol+water (70+30 by volume), rinsing one time with ethanol+water (70+30 by volume) and two times with a sterile, deionized water. The seeds are resuspended in 0.1% agar dissolved in water (w/v). Four to five seeds per well are plated on solid nutrient medium consisting of half-strength Murashige Skoog nutrient solution, pH 5.8 (Murashige and Skoog (1962) Physiologia Plantarum 15: 473-497). Compounds are dissolved in dimethylsulfoxid (DMSO) and added to the medium prior solidification (final DMSO concentration 0.1%). Multi well plates are incubated in a growth chamber at 22° C., 75% relative humidity and 110 μmol Phot*m−2*s−1 with 14:10 h light:dark photoperiod. Seven to ten days after seeding growth inhibition is evaluated by comparison to wild type plants. Tolerance factor is calculated by dividing the plant growth IC50 value of transgenic plants containing a HPPD and/or HST sequence by that of wildtype plants.\n(§4) Transgenic soy plants were sprayed with a range of doses from 6.25-100 g/ha with an HPPD-inhibiting herbicide and injury evaluations were taken two weeks after treatment. […] Compared to the untransformed wild-type, plants comprising polynucleotides encoding for Arabidopsis HPPD wild-type or mutated versions thereof were less susceptible to Inhibitor 1."}, "[2]": {"test_system": "untransformed control soybean plants (Jake)", "experiment": "Herbicide field trial", "settings": "7 DAT with 50 g/ha, post-emergence V2-V3, 1% v/v MSO; preliminary assessment, FIG. 7", "protocol": "(§5) Transgenic plants expressing heterologous HPPD or HST enzymes are tested for tolerance against HPPD-inhibiting herbicides in field experiments.\n(§6) A study can be conducted at a field trial location to evaluate the effect of HPPD herbicides on the phenotypic and phenologic characteristics of a soybean variety containing different transgenes.\n(§7) The trial is designed as a randomized complete block with a split-plot treatment design. The trial contains mainplots defined by ‘herbicide treatment’ (combination of herbicide and application rate). The herbicide treatments are applied post-emergence at the V2-V3 plant growth stage. […]\n(§8) Each plot consists of a single row 1.2 m long and adjacent plots are spaced 0.76 m apart. […] The zygosity of each plant of transgenic event is determined prior to the application of the herbicide treatment.\n(§9) The effect of the HPPD herbicide treatments on phenotypic and phenologic characteristics of plants representing each transgenic event and control variety, including tolerance to each herbicide treatment, is assessed during different vegetative and reproductive stages of plant growth.\n(§10) An analysis of variance is conducted on data collected from each subplot and a Student's T test or Tukey's test is calculated where appropriate to compare means. […]"}, "[3]": {"test_system": "soybean plants expressing mutated Arabidopsis HPPD", "experiment": "Herbicide field trial", "settings": "7 DAT with 50 g/ha, post-emergence V2-V3, 1% v/v MSO; preliminary assessment, FIG. 7", "protocol": "as §5, §6, §7, §8, §9, §10"}, "[4]": {"test_system": "transgenic soybean plants AtHPPD P336A E363Q I393L L385V, event SDS-10085", "experiment": "Greenhouse testing of soybean plants", "settings": "soybean AtHPPD P336A E363Q I393L L385V SDS-10085, 14 days, average of 8 T1 individuals", "protocol": "as §1, §2, §3\n(§11) Depending on the species, the plants are kept at 10-25° C. or 20-35° C. The test period extends over 3 weeks. During this time, the plants are tended and their response to the individual treatments is evaluated. Herbicide injury evaluations are taken at 2 and 3 weeks after treatment. Plant injury is rated on a scale of 0 to 9, 0 being no injury and 9 being complete death. Tolerance to HPPD-inhibiting, preferably pyrazolone, isoxazole, or triketone derivative herbicides can also be assessed in Arabidopsis. In this case transgenic Arabidopsis thaliana plants are assayed for improved tolerance to HPPD-inhibiting, preferably pyrazolone, isoxazole, or triketone derivative herbicides in 48-well plates. Seeds are surface sterilized by stirring for 5 min in ethanol+water (70+30 by volume), rinsing one time with ethanol+water (70+30 by volume) and two times with a sterile, deionized water. The seeds are resuspended in 0.1% agar dissolved in water (w/v). Four to five seeds per well are plated on solid nutrient medium consisting of half-strength Murashige Skoog nutrient solution, pH 5.8 (Murashige and Skoog (1962) Physiologia Plantarum 15: 473-497). Compounds are dissolved in dimethylsulfoxid (DMSO) and added to the medium prior solidification (final DMSO concentration 0.1%). Multi well plates are incubated in a growth chamber at 22° C., 75% relative humidity and 110 μmol Phot*m−2*s−1 with 14:10 h light:dark photoperiod. Seven to ten days after seeding growth inhibition is evaluated by comparison to wild type plants. Tolerance factor is calculated by dividing the plant growth IC50 value of transgenic plants containing a HPPD and/or HST sequence by that of wildtype plants.\nas §4"}, "[5]": {"test_system": "transgenic soybean plants AtHPPD M335Y, event SDS-9866", "experiment": "Greenhouse testing of soybean plants", "settings": "soybean AtHPPD M335Y SDS-9866, 14 days, average of 8 T1 individuals", "protocol": "as §1, §2, §3, §11, §4"}}}
{"smiles": "Cc1c(C(=O)c2cnn(C)c2O)ccc(S(C)(=O)=O)c1C1=NOCC1", "note": "[Inhibitor 1, [3-(4,5-dihydroisoxazol-3-yl)-2-methyl-4-methylsulfonyl-phenyl]-(5-hydroxy-1-methyl-pyrazol-4-yl)methanone]", "values": [{"measurement": "Injury evaluation (bleaching phenotype, scale of 1-100)", "setting": "[1]; 25 g/ha", "value": 90, "unit": "%"}, {"measurement": "Injury evaluation (bleaching phenotype, scale of 1-100)", "setting": "[1]; 100 g/ha", "value": 90, "unit": "%"}, {"measurement": "field injury (in words)", "setting": "[2]", "value": "severe herbicide damage"}, {"measurement": "field injury (in words)", "setting": "[3]", "value": "low-moderate injury"}, {"measurement": "Injury evaluation (bleaching phenotype, scale of 1-100)", "setting": "[4]; 6.25 g/ha", "value": 16, "unit": "%"}, {"measurement": "Injury evaluation (bleaching phenotype, scale of 1-100)", "setting": "[4]; 25 g/ha", "value": 35, "unit": "%"}, {"measurement": "Injury evaluation (bleaching phenotype, scale of 1-100)", "setting": "[4]; 100 g/ha", "value": 78, "unit": "%"}, {"measurement": "Injury evaluation (bleaching phenotype, scale of 1-100)", "setting": "[5]; 6.25 g/ha", "value": 0, "unit": "%"}, {"measurement": "Injury evaluation (bleaching phenotype, scale of 1-100)", "setting": "[5]; 25 g/ha", "value": 11, "unit": "%"}, {"measurement": "Injury evaluation (bleaching phenotype, scale of 1-100)", "setting": "[5]; 100 g/ha", "value": 31, "unit": "%"}]}
